Test results taken from patent US8435984B2, “Tertiary amine substituted peptides useful as inhibitors of HCV replication” (Achillion Pharmaceuticals, Inc., priority 2007, dated 2013).

These compounds were tested on HCV replicon (assay: HCV replicon replication assay (NPT ELISA) in Huh-7 replicon-containing cells). Details: Hepatitis C virus, 72 h; inhibition of HCV replicon replication, Huh-7 HCV replicon-containing cells, three days.
Assay type: cell-based, Hepatitis C virus
Procedure: Compounds claimed herein are tested for the ability to inhibit viral replication of the Hepatitis C replicon in cultured cells in which the HCV replicon construct has been incorporated. The HCV replicon system was described by Bartenschlager, et. al (Science, 285, pp. 110-113 (1999)). The replicon system is predictive of in vivo anti-HCV activity; compounds that are active in humans uniformly evidence activity in the replicon assay.
In this assay HCV replicon containing cells are treated with different concentrations of the test compound to ascertain the ability of the test compound to suppress replication of the HCV replicon. As a positive control, HCV replicon-containing cells are treated with different concentrations of interferon alpha, a known inhibitor of HCV replication. The replicon assay system includes Neomycin Phosphotransferase (NPT) as a component of the replicon itself in order to detect the transcription of replicon gene products in the host cell. Cells in which the HCV replicon is actively replicating have high levels of NPT; the level of NPT is proportional to HCV replication. […] The NPT level of each sample is measured using a captured ELISA.
The HCV replicon contains, 5′-3′, the HCV-IRES, the neomycin phosphotransferase (neo) gene, the IRES of encephalomyocarditis virus, which directs translation of HCV sequences NS3 to NS5B, and the 3′-NTR. The sequence of the HCV replicon has been deposited in GenBank (Accession no. AJ242652).
The replicon is transfected into Huh-7 cells using standard methods such as electroporation.
HCV replicon-containing cells are rinsed with once PBS once; 2 mls of trypsin are then added. Cells are incubated at 37° C. in a 5% CO2 incubator for 3-5 minutes. 10 mls of complete medium is added to stop the reaction. Cells are blown gently, put into a 15 ml tube, and spun at 1200 rpm for four minutes. The trypsin/medium solution is removed and 5 mls of medium (500 ml DMEM (high glucose)) from BRL catalog #12430-054; 50 mls 10% FBS, 5% Geneticin G418 (50 mg/ml, BRL catalog #10131-035), 5 ml MEM non-essential amino acids (100×BRL #11140-050) and 5 ml pen-strep (BRL #15140-148) is added. The cells and media are mixed carefully
Cells are plated with screening medium (500 ml DMEM (BRL #21063-029), 50 ml FBS (BRL #10082-147) and 5 ml MEM non-essential amino acid (BRL #11140-050) at 6000-7500 cells/100 μl/well of 96 well plate (6-7.5×10^5 cells/10 ml/plate). Plates are placed into 37° C. 5% CO2 incubator overnight. 6D. Assay
The following morning, drugs (test compounds or interferon alpha) are diluted in 96 well U bottom plates with media or DMSO/media, depending on the final concentration chosen for screening. Generally for 6 concentrations of each test compounds ranging from 10 micromolar to 0.03 micromolar are applied. 100 μl of the test compound dilution is placed in wells of the 96 well plate containing the HCV replicon cells. Media without drug is added to some wells as a negative controls. DMSO is known to affect cell growth. Therefore, if drugs diluted in DMSO are used, all wells, including negative control (media only) and positive control (interferon alpha) wells, must contain the same concentration of DMSO, for single dose screening. The plates are incubated at 37° C. in a humidified 5% CO2 environment for three days.
On day four, the NTPII assay is quantitated. The medium is poured from the plates and the plates are washed once in 200 μl of PBS. The PBS is then decanted and the plates tapped in a paper towel to remove any remaining PBS. Cells are fixed in situ with 100 id/well of pre-cooled (−20° C.) methanol:acetone (1:1) and the plates are placed at −20° C. for 30 minutes.
The fixing solution is poured from the plates and the plates allowed to air-dry completely (approximately one hour). The appearance of the dried cell layer is recorded and the density of the cells in the toxic wells is scored with the naked eye. […]
For `C=CC1CC1(NC(=O)[C@@H]1C[C@@H](Oc2cc(-c3ccccc3)nc3cc(OC)ccc23)CN1C(=O)[C@H](c1ccccc1)N1CCCCC1)C(=O)OCC` (stereo partly drawn) [Compound 51, ethyl 1-((2S,4R)-4-(7-methoxy-2-phenylquinolin-4-yloxy)-1-((S)-2-phenyl-2-(piperidin-1-yl)acetyl)pyrrolidine-2-carboxamido)-2-vinylcyclopropanecarboxylate], the EC50 was < 100 µM. `CCOC(=O)[C@@]12C[C@H]1/C=C\CCCCC[C@H](N1CCCCC1)C(=O)N1C[C@H](Oc3cc(-c4ccccc4)nc4cc(OC)ccc34)C[C@H]1C(=O)N2` [Compound 63, (2R,6S,13aS,14aR,16aS,Z)-ethyl 2-(7-methoxy-2-phenylquinolin-4-yloxy)-5,16-dioxo-6-(piperidin-1-yl)-1,2,3,5,6,7,8,9,10,11,13a,14,14a, 15,16,16a-hexadecahydrocyclopropa [e]pyrrolo[1,2-a] [1,4]diazacyclopentadecine-14a-carboxylate] was tested, and the EC50 was < 100 µM. `CCCC(NC(=O)C1C2CCCC2CN1C(=O)[C@@H](C)N1CCCCC1)C(=O)C(=O)NC1CC1` (stereo partly drawn) [Compound 42, N-(1-(cyclopropylamino)-1,2-dioxohexan-3-yl)-2-((R)-2-(piperidin-1-yl)propanoyl)octahydrocyclopenta [c]pyrrole-1-carboxamide] was tested, and the EC50 was > 100 µM. For `C=CC1CC1(NC(=O)[C@@H]1C[C@@H](Oc2cc(-c3ccccc3)nc3cc(OC)ccc23)CN1C(=O)[C@H](C)N1CCCCC1)C(=O)NS(=O)(=O)C1CC1` (stereo partly drawn) [Compound 67, (2S,4R)-N-(1-(cyclopropylsulfonylcarbamoyl)-2-vinylcyclopropyl)-4-(7-methoxy-2-phenylquinolin-4-yloxy)-1-((S)-2-(piperidin-1-yl)propanoyl)pyrrolidine-2-carboxamide], the EC50 was < 100 µM. In the case of `C=CC1CC1(NC(=O)[C@@H]1C[C@@H](Oc2cc(-c3ccccc3)nc3cc(OC)ccc23)CN1C(=O)[C@@H](N1CCCCC1)C(C)(C)C)C(=O)OCC` (stereo partly drawn) [Compound 50, ethyl 1-((2S,4R)-1-((S)-3,3-dimethyl-2-(piperidin-1-yl)butanoyl)-4-(7-methoxy-2-phenylquinolin-4-yloxy)pyrrolidine-2-carboxamido)-2-vinylcyclopropanecarboxylate], the EC50 is reported as < 100 µM. `C=CC1CC1(NC(=O)[C@@H]1C[C@@H](Oc2cc(-c3ccccc3)nc3cc(OC)ccc23)CN1C(=O)[C@H](C1CCCCC1)N1CCCCC1)C(=O)O` (stereo partly drawn) [Compound 58, 1-((2S,4R)-1-((S)-2-cyclohexyl-2-(piperidin-1-yl)acetyl)-4-(7-methoxy-2-phenylquinolin-4-yloxy)pyrrolidine-2-carboxamido)-2-vinylcyclopropanecarboxylic acid] was tested, and the EC50 was < 100 µM. With `CCCC(NC(=O)C1C2CCCC2CN1C(=O)[C@H](C)N1CCCCC1)C(=O)C(=O)NC1CC1` (stereo partly drawn) [Compound 46, N-(1-(cyclopropylamino)-1,2-dioxohexan-3-yl)-2-((S)-2-(piperidin-1-yl)propanoyl)octahydrocyclopenta [c]pyrrole-1-carboxamide] the EC50 was < 100 µM. `C=CC1CC1(NC(=O)[C@@H]1C[C@@H](Oc2cc(-c3ccccc3)nc3cc(OC)ccc23)CN1C(=O)[C@H](C(C)C)N1CCCCC1)C(=O)NS(=O)(=O)C1CC1` (stereo partly drawn) [Compound 68, (2S,4R)-N-(1-(cyclopropylsulfonylcarbamoyl)-2-vinylcyclopropyl)-4-(7-methoxy-2-phenylquinolin-4-yloxy)-1-((S)-3-methyl-2-(piperidin-1-yl)butanoyl)pyrrolidine-2-carboxamide] was tested, and the EC50 was < 100 µM. With `C=CC1CC1(NC(=O)[C@@H]1C[C@@H](Oc2cc(-c3ccccc3)nc3cc(OC)ccc23)CN1C(=O)[C@H](C)N1CCCCC1)C(=O)OCC` (stereo partly drawn) [Compound 54, ethyl 1-((2S,4R)-4-(7-methoxy-2-phenylquinolin-4-yloxy)-1-((S)-2-(piperidin-1-yl)propanoyl)pyrrolidine-2-carboxamido)-2-vinylcyclopropanecarboxylate] the EC50 was < 100 µM. In the case of `CCCC(NC(=O)C1C2CCCC2CN1C(=O)[C@@H](C)N1CCCC1)C(=O)C(=O)NC1CC1` (stereo partly drawn) [Compound 43, N-(1-(cyclopropylamino)-1,2-dioxohexan-3-yl)-2-((R)-2-(pyrrolidin-1-yl)propanoyl)octahydrocyclopenta [c]pyrrole-1-carboxamide], the EC50 is reported as > 100 µM. With `CCCC(NC(=O)[C@@H]1C[C@@H](OC(=O)N2CCc3ccccc3C2)CN1C(=O)C(C)N1CCCCC1)C(=O)C(=O)NC1CC1` (stereo partly drawn) [Compound 44, (3R,5S)-5-(1-(cyclopropylamino)-1,2-dioxohexan-3-ylcarbamoyl)-1-(2-(piperidin-1-yl)propanoyl)pyrrolidin-3-yl 3,4-dihydroisoquinoline-2(1H)-carboxylate] the EC50 was < 100 µM. For `C=CC1CC1(NC(=O)[C@@H]1C[C@@H](Oc2cc(-c3ccccc3)nc3cc(OC)ccc23)CN1C(=O)[C@H](C1CCCCC1)N1CCCCC1)C(=O)NS(=O)(=O)C1CC1` (stereo partly drawn) [Compound 64, (2S,4R)-1-((S)-2-cyclohexyl-2-(piperidin-1-yl)acetyl)-N-(1-(cyclopropylsulfonylcarbamoyl)-2-vinylcyclopropyl)-4-(7-methoxy-2-phenylquinolin-4-yloxy)pyrrolidine-2-carboxamide], the EC50 was < 100 µM. With `C=CC1CC1(NC(=O)[C@@H]1C[C@@H](Oc2cc(-c3ccccc3)nc3cc(OC)ccc23)CN1C(=O)[C@H](C)N1CCCCC1)C(=O)O` (stereo partly drawn) [Compound 59, 1-((2S,4R)-4-(7-methoxy-2-phenylquinolin-4-yloxy)-1-((S)-2-(piperidin-1-yl)propanoyl)pyrrolidine-2-carboxamido)-2-vinylcyclopropanecarboxylic acid] the EC50 was > 100 µM. With `CCOC(=O)[C@]12C[C@@H]1/C=C\CCCCC[C@H](N1CCCCC1)C(=O)N1C[C@H](Oc3cc(-c4ccccc4)nc4cc(OC)ccc34)C[C@H]1C(=O)N2` [Compound 62, (2R,6S,13aR,14aS,16aS,Z)-ethyl 2-(7-methoxy-2-phenylquinolin-4-yloxy)-5,16-dioxo-6-(piperidin-1-yl)-1,2,3,5,6,7,8,9,10,11,13a,14,14a, 15,16,16a-hexadecahydrocyclopropa [e]pyrrolo[1,2-a] [1,4]diazacyclopentadecine-14a-carboxylate] the EC50 was < 100 µM. With `C=CC1CC1(NC(=O)[C@@H]1C[C@@H](Oc2cc(-c3ccccc3)nc3cc(OC)ccc23)CN1C(=O)[C@H](C(C)C)N1CCCCC1)C(=O)O` (stereo partly drawn) [Compound 57, 1-((2S,4R)-4-(7-methoxy-2-phenylquinolin-4-yloxy)-1-((S)-3-methyl-2-(piperidin-1-yl)butanoyl)pyrrolidine-2-carboxamido)-2-vinylcyclopropanecarboxylic acid] the EC50 was < 100 µM.
